One block for each molecule: values may come before it.
Columns and labels:
Assay in all cases: radiometric filter-binding kinase assay
[1] = biological target: MAPK7 (human) (UniProt Q13164)
[2] = biological target: PLK1 (human) (UniProt P53350)
[3] = biological target: ULK2 (human) (UniProt Q8IYT8)
[4] = biological target: STK24 (human) (UniProt Q9Y6E0)
[5] = biological target: MAP4K3 (human) (UniProt Q8IVH8)
[6] = biological target: TESK1 (human) (UniProt Q15569)
[7] = biological target: STK33 (human) (UniProt Q9BYT3)
Chain of STK33 (human) (Q9BYT3 whole entry, looked up): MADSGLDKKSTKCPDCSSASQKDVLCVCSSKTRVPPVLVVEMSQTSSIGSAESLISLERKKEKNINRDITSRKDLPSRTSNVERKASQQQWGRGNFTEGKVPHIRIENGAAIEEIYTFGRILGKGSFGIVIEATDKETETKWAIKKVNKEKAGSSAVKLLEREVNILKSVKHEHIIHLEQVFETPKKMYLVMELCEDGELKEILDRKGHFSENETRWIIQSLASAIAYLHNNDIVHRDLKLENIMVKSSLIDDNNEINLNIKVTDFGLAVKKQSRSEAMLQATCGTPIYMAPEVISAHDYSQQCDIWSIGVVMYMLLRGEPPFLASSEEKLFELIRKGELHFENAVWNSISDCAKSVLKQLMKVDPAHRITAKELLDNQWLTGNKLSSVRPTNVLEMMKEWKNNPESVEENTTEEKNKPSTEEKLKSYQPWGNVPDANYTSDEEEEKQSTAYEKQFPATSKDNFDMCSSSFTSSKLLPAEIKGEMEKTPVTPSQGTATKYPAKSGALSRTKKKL

[8] = biological target: ZAP70 (human) (UniProt P43403)
[9] = biological target: WNK1 (human) (UniProt Q9H4A3)
[10] = biological target: PRKAA1 PRKAB2 PRKAG1 (human) (UniProt O43741+Q13131+P54619)
Chain of PRKAA1 PRKAB2 PRKAG1 (human) (O43741 whole entry, looked up): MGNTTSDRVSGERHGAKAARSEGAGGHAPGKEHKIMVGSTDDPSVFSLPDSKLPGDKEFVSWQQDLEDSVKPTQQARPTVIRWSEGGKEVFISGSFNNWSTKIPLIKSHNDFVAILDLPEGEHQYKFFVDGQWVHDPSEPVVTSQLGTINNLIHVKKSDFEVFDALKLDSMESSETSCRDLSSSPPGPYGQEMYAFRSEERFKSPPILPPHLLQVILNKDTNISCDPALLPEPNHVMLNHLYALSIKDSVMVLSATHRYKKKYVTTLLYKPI
Chain of PRKAA1 PRKAB2 PRKAG1 (human) (P54619 whole entry, looked up): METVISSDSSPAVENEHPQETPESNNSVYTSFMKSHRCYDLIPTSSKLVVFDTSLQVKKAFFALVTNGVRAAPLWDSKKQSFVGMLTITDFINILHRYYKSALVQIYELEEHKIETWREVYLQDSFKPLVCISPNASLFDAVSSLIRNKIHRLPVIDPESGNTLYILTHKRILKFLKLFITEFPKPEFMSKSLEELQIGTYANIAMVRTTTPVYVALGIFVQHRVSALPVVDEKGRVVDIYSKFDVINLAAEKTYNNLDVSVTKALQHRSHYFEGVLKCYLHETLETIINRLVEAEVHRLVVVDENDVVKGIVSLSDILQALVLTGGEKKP
Chain of PRKAA1 PRKAB2 PRKAG1 (human) (Q13131 whole entry, looked up): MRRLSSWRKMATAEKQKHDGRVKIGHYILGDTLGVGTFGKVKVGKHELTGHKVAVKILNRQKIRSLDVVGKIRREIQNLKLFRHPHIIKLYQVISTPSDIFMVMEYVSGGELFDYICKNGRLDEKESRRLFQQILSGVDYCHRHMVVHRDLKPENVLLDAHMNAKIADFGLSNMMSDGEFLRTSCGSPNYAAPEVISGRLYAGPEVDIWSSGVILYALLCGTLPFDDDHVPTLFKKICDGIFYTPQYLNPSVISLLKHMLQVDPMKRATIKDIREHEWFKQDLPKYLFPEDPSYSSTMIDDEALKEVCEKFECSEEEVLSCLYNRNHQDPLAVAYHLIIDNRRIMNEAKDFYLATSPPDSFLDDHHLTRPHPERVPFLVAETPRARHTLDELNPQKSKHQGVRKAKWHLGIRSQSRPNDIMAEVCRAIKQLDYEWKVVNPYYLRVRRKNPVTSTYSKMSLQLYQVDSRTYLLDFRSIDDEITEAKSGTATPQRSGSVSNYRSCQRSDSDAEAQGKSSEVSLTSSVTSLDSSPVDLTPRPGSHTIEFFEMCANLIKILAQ

[11] = biological target: STK16 (human) (UniProt O75716)
[12] = biological target: CSNK1G2 (human) (UniProt P78368)
Chain of CSNK1G2 (human) (P78368 whole entry, looked up): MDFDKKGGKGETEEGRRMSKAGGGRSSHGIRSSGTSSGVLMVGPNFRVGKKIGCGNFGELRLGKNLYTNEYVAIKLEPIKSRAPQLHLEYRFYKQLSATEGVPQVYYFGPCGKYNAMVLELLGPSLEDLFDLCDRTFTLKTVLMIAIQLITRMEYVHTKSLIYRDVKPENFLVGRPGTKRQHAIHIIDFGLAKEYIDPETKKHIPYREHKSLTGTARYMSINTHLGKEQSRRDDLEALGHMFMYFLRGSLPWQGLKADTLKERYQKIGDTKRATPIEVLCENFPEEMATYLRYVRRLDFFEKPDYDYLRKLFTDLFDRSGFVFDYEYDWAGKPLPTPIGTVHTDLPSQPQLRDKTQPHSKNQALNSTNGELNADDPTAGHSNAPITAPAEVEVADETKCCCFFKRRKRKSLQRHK

[13] = biological target: EIF2AK3 (human) (UniProt Q9NZJ5)
[14] = biological target: IRAK1 (human) (UniProt P51617)
Chain of IRAK1 (human) (P51617 whole entry, looked up): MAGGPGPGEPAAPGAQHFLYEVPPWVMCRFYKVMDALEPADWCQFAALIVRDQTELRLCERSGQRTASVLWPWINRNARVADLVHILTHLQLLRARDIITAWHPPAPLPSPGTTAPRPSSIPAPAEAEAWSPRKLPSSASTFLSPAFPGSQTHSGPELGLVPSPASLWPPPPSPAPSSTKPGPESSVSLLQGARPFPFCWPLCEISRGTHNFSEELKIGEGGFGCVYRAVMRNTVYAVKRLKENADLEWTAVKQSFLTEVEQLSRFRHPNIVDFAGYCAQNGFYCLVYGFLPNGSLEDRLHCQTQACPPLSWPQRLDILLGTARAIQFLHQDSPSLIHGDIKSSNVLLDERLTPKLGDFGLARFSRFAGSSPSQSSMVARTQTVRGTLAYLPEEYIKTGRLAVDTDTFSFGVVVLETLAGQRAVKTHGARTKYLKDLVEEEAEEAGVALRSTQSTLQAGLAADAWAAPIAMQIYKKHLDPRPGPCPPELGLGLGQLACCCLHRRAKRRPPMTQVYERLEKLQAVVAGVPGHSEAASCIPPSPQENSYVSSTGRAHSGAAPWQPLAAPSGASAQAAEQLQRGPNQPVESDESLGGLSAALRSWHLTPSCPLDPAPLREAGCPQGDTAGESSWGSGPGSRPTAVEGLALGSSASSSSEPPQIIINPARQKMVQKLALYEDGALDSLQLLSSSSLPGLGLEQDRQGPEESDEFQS

[15] = biological target: ULK1 (human) (UniProt O75385)
[16] = biological target: TTBK2 (human) (UniProt Q6IQ55)
[17] = biological target: MAP4K5 (human) (UniProt Q9Y4K4)
[18] = biological target: DDR2 (human) (UniProt Q16832)
[19] = tested on: TGFBR1 (human), P36897 [T204D]
[20] = biological target: PDGFRA (human) (UniProt P16234)
[21] = biological target: TTBK1 (human) (UniProt Q5TCY1)
[22] = biological target: SIK3 (human) (UniProt Q9Y2K2)
[23] = biological target: PTK6 (human) (UniProt Q13882)
Chain of PTK6 (human) (Q13882 whole entry, looked up): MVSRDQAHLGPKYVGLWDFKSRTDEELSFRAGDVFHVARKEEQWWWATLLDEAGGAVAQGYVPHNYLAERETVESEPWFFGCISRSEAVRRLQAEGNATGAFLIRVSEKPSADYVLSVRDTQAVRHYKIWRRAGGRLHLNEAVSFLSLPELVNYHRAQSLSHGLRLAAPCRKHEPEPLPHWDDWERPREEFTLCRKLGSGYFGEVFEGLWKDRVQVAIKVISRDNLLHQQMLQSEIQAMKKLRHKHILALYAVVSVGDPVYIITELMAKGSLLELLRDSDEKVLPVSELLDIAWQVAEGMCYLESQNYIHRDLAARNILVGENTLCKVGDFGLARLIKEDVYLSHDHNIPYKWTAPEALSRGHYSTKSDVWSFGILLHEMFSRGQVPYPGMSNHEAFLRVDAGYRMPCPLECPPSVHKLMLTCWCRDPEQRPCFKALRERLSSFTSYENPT

[24] = tested on: OXSR1 (human), O95747 [T185E]
[25] = biological target: SIK2 (human) (UniProt Q9H0K1)
[26] = biological target: CDK9 CCNT1 (human) (UniProt P50750+O60563)
[27] = biological target: ABL1 (human) (UniProt P00519)
Chain of ABL1 (human) (P00519 whole entry, looked up): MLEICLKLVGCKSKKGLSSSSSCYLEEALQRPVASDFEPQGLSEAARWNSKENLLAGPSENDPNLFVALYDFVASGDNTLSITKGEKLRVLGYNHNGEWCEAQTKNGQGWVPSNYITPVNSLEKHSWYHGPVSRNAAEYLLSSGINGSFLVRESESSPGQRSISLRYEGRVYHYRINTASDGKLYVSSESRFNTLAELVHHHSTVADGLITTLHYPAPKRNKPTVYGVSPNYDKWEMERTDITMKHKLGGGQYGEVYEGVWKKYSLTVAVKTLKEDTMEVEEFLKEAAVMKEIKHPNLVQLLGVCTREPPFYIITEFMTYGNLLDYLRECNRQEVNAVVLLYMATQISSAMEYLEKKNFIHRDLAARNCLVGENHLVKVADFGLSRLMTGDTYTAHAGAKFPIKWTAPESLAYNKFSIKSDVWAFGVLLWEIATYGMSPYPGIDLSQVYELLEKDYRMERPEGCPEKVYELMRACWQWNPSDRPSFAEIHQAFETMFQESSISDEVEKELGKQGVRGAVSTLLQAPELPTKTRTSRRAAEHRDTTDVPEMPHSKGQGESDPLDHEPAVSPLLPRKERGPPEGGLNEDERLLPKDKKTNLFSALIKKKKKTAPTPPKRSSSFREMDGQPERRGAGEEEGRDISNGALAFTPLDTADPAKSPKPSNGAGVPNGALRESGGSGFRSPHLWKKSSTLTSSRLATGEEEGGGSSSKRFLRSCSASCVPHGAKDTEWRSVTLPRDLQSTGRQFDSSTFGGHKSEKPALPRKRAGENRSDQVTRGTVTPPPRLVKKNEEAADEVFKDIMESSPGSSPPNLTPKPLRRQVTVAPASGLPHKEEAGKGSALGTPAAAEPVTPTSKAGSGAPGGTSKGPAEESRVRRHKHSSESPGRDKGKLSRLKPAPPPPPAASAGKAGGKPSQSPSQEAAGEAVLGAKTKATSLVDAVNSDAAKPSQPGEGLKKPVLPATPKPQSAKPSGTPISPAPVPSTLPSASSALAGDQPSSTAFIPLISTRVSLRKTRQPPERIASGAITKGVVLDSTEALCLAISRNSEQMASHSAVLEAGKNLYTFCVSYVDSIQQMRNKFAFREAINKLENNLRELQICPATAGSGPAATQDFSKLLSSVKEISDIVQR

[28] = biological target: TLK1 (human) (UniProt Q9UKI8)
[29] = biological target: TSSK1B (human) (UniProt Q9BXA7)
[30] = biological target: TEK (human) (UniProt Q02763)
[31] = biological target: PRKCG (human) (UniProt P05129); conditions: compound 0.1 µM

Chain of TESK1 (human) (Q15569 whole entry, looked up): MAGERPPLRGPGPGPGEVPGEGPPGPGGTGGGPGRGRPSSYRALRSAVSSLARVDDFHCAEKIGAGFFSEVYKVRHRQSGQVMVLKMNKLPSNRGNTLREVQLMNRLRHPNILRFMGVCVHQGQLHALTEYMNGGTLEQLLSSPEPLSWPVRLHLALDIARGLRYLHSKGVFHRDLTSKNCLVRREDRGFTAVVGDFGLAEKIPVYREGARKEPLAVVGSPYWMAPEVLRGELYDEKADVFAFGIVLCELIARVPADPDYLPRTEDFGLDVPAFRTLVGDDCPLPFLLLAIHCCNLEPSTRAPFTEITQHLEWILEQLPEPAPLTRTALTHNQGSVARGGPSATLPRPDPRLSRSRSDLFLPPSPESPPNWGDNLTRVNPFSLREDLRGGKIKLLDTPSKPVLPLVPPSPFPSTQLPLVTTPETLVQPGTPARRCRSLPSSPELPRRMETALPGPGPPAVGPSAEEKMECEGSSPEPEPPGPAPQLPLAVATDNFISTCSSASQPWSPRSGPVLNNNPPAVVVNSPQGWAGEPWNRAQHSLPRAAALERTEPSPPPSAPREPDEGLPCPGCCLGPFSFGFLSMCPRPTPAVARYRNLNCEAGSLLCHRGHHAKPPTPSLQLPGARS

residual activity ([1]; compound 1.0 µM): 66%
residual activity ([1]; compound 10.0 µM): 42%
residual activity ([2]; compound 1.0 µM): 78%
residual activity ([2]; compound 10.0 µM): 40%
residual activity ([3]; compound 1.0 µM): 88%
residual activity ([3]; compound 10.0 µM): 70%
residual activity ([4]; compound 1.0 µM): 96%
residual activity ([4]; compound 10.0 µM): 85%
residual activity ([5]; compound 1.0 µM): 76%
residual activity ([5]; compound 10.0 µM): 36%
residual activity ([6]; compound 1.0 µM): 102%
residual activity ([6]; compound 10.0 µM): 118%
residual activity ([7]; compound 1.0 µM): 47%
residual activity ([7]; compound 10.0 µM): 30%
residual activity ([8]; compound 1.0 µM): 88%
residual activity ([8]; compound 10.0 µM): 86%
residual activity ([9]; compound 1.0 µM): 97%
residual activity ([9]; compound 10.0 µM): 106%
residual activity ([10]; compound 1.0 µM): 82%
residual activity ([10]; compound 10.0 µM): 44%
residual activity ([11]; compound 1.0 µM): 115%
residual activity ([11]; compound 10.0 µM): 101%
residual activity ([12]; compound 1.0 µM): 90%
residual activity ([12]; compound 10.0 µM): 89%
residual activity ([13]; compound 1.0 µM): 87%
residual activity ([13]; compound 10.0 µM): 82%
residual activity ([14]; compound 1.0 µM): 98%
residual activity ([14]; compound 10.0 µM): 94%
residual activity ([15]; compound 1.0 µM): 98%
residual activity ([15]; compound 10.0 µM): 56%
residual activity ([16]; compound 1.0 µM): 91%
residual activity ([16]; compound 10.0 µM): 97%
residual activity ([17]; compound 1.0 µM): 107%
residual activity ([17]; compound 10.0 µM): 91%
residual activity ([18]; compound 1.0 µM): 105%
residual activity ([18]; compound 10.0 µM): 100%
residual activity ([19]; compound 1.0 µM): 99%
residual activity ([19]; compound 10.0 µM): 103%
residual activity ([20]; compound 1.0 µM): 81%
residual activity ([20]; compound 10.0 µM): 76%
residual activity ([21]; compound 1.0 µM): 96%
residual activity ([21]; compound 10.0 µM): 93%
residual activity ([22]; compound 1.0 µM): 95%
residual activity ([22]; compound 10.0 µM): 93%
residual activity ([23]; compound 1.0 µM): 53%
residual activity ([23]; compound 10.0 µM): 22%
residual activity ([24]; compound 1.0 µM): 95%
residual activity ([24]; compound 10.0 µM): 51%
residual activity ([25]; compound 1.0 µM): 84%
residual activity ([25]; compound 10.0 µM): 34%
residual activity ([26]; compound 1.0 µM): 87%
residual activity ([26]; compound 10.0 µM): 90%
residual activity ([27]; compound 1.0 µM): 106%
residual activity ([27]; compound 10.0 µM): 97%
residual activity ([28]; compound 1.0 µM): 106%
residual activity ([28]; compound 10.0 µM): 96%
residual activity ([29]; compound 1.0 µM): 31%
residual activity ([29]; compound 10.0 µM): 7%
residual activity ([30]; compound 1.0 µM): 85%
residual activity ([30]; compound 10.0 µM): 91%
Structure (SMILES): COc1cc(C(=O)N2CCOCC2)c(F)cc1Nc1ncc(C(F)(F)F)c(NC2CC2)n1

residual activity ([1]; compound 0.1 µM): 90%
residual activity ([2]; compound 0.1 µM): 96%
residual activity ([3]; compound 0.1 µM): 109%
residual activity ([4]; compound 0.1 µM): 102%
residual activity ([5]; compound 0.1 µM): 85%
residual activity ([6]; compound 0.1 µM): 94%
residual activity ([7]; compound 0.1 µM): 105%
residual activity ([8]; compound 0.1 µM): 122%
residual activity ([9]; compound 0.1 µM): 99%
residual activity ([10]; compound 0.1 µM): 102%
residual activity ([11]; compound 0.1 µM): 108%
residual activity ([12]; compound 0.1 µM): 107%
residual activity ([13]; compound 0.1 µM): 111%
residual activity ([14]; compound 0.1 µM): 84%
residual activity ([15]; compound 0.1 µM): 99%
residual activity ([16]; compound 0.1 µM): 94%
residual activity ([17]; compound 0.1 µM): 70%
residual activity ([18]; compound 0.1 µM): 20%
residual activity ([19]; compound 0.1 µM): 90%
residual activity ([20]; compound 0.1 µM): 101%
residual activity ([22]; compound 0.1 µM): 92%
residual activity ([23]; compound 0.1 µM): 31%
residual activity ([24]; compound 0.1 µM): 102%
residual activity ([25]; compound 0.1 µM): 51%
residual activity ([26]; compound 0.1 µM): 100%
residual activity ([27]; compound 0.1 µM): 26%
residual activity ([28]; compound 0.1 µM): 107%
residual activity [31]: 103%
residual activity ([29]; compound 0.1 µM): 115%
Structure (SMILES): CN1CCN(CCOc2cc(OC3CCOCC3)c3c(Nc4c(Cl)ccc5c4OCO5)ncnc3c2)CC1
